Data reported in PMC7374715, “Conservation of Cdc14 phosphatase specificity in plant fungal pathogens: implications for antifungal development” (Scientific Reports, 2020).
Like-named read-outs stand apart in the source and are kept apart here. Numbered stars: 1 amine (or outer) side, 2 acyl side, 3 side chain; on linkers, the order of the positions; unused ones are H or OH. Square brackets hold non-standard residues; d marks the D form. Ends that are not written are not given here. Peptide text beside a SMILES is read from it. X1 = O=C([C@H](CC(F)(F)P(=O)(O)O)N[*:1])[*:2]; pS = N[C@@H](COP(=O)(O)O)C(=O)O

Key:
[1] = test system: CzCdc14; details: DiFMUP; 0.5 nM enzyme, pH 7.5, 30 °C; mean of 3 ± SD
Description: All enzyme concentrations were 0.5 nM, except for PsCdc14 and VHR, which were assayed at 2 and 5 nM, respectively. Fluorescence intensity was measured continuously on a Synergy H1 microplate reader (BioTek) with excitation and emission wavelengths set at 358 and 450 nm, respectively. Fluorescence intensity was converted to product concentration using a 6,8-difluoro-4-methylumbelliferone standard curve. Background fluorescence was subtracted from each reaction and initial rates were calculated from the slope of the linear portion of the product concentration versus time plots. kcat and KM were calculated as described above.

[2] = target: T1, MoCdc14 (Pyricularia oryzae, UniProt G4MRC9); details: DiFMUP; 0.5 nM enzyme, pH 7.5, 30 °C; mean of 3 ± SD
[3] = target: T1, MoCdc14; assay: biochemical; parameters: species or system Magnaporthe oryzae
[4] = target: T2, ScCdc14 (Saccharomyces cerevisiae, UniProt Q00684); assay: Enzyme inhibition, DiFMUP assay; assay type: biochemical
T2 construct: made in house; host or cells: E. coli BL21 AI
T2 sequence (Q00684 1-447 limits assumed): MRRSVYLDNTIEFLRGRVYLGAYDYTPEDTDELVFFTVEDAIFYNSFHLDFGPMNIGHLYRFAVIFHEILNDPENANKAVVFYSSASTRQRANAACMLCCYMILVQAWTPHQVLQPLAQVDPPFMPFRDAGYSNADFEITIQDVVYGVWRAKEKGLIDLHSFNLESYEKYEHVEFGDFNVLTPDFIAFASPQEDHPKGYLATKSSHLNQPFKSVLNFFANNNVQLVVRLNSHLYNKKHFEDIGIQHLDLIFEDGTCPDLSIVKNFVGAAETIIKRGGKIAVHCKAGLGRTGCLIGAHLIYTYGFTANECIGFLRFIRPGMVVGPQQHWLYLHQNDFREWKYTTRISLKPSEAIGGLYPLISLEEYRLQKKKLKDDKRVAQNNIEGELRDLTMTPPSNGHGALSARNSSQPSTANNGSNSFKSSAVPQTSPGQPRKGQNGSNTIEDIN
Text: Measured initial rates were converted to percent activity relative to a reaction lacking pCF2Ser peptide. […] Ki is related to IC50 by the equation Ki = IC50/([S]/KM + 1). Since [S] was equal to KM in our assays, Ki = IC50/2.

[5] = target: T1, MoCdc14; details: pNPP; 25 mM HEPES pH 7.5, 30 °C; mean of 3 ± SD
[6] = test system: CzCdc14; assay type: biochemical, Cercospora zeina; details: pNPP; 25 mM HEPES pH 7.5, 30 °C; mean of 3 ± SD
Description: Activities towards varying concentrations of para-nitrophenyl phosphate (pNPP) were measured in 100 µL assay buffer (25 mM HEPES pH 7.5, 2 mM TCEP, 1 mM EDTA, and 150 mM NaCl) at 30 °C. Enzyme concentrations were chosen to achieve absorbance values within the linear response range while satisfying the steady-state assumption where substrate consumption was < 1%. Reactions were initiated by enzyme addition and stopped with 1 N NaOH. Absorbance at 405 nm was measured on a Synergy H1 microplate reader (BioTek) and converted to product concentration using a para-nitrophenol standard curve. Initial rates were plotted as a function of substrate concentration and fit with the Michealis-Menten equation in GraphPad Prism (Version 8) to determine kcat and KM.

[7] = target: T3, AnCdc14 (Aspergillus niger, UniProt A2QDS6); assay: MS specificity constant assay; assay type: biochemical; details: pooled phosphopeptides 375 nM each, 1 to 1,000 nM Cdc14, pH 7.5, 30 °C; LC-MS; mean of 3 ± SD
[8] = target: T4, RsCdc14 (Rhizoctonia solani, UniProt L8WYM4); assay: MS specificity constant assay; assay type: biochemical; details: pooled phosphopeptides 375 nM each, 1 to 1,000 nM Cdc14, pH 7.5, 30 °C; LC-MS; mean of 3 ± SD
[9] = test system: all Cdc14 homologs; assay: MS specificity constant assay, all homologs compared; assay type: biochemical
Text: (§1) Our primary interest was the conservation of substrate specificity. To define the specificities of the eight fungal pathogen Cdc14 homologs and compare them to the well-characterized ScCdc14, we developed a new assay that uses mass spectrometry (MS) to measure the specificity constant, kcat/KM, for a collection of synthetic phosphopeptide substrates (Fig. 3a). This assay, based on a similar assay for measuring protease specificity, is more sensitive and has a much broader linear dynamic range (Fig. 3b) than the conventional malachite green colorimetric assay used to generate the phosphopeptide data in Table 1. These advantages made it convenient for measuring Cdc14 activity towards substrates whose specificity constants can vary by several orders of magnitude. The assay also increases throughput by allowing simultaneous measurement of kcat/KM for many different substrates. The peptides were based on the Yen1 Ser583 sequence with variations designed to test the importance of the four known ScCdc14 substrate recognition features (phosphoamino acid identity, + 1 Pro, + 3 Lys/Arg, Lys/Arg near + 3). Measurements were made by integrating MS chromatogram peak areas for the phosphorylated and dephosphorylated peptide species after Cdc14 treatment and using those values to calculate the fraction of substrate consumed (Fig. 3c; see “Methods” for details). […]

[10] = target: T1, MoCdc14; assay type: biochemical, Magnaporthe oryzae; details: pooled phosphopeptides 375 nM each, 1 to 1,000 nM Cdc14, pH 7.5, 30 °C; LC-MS; mean of 3 ± SD
[11] = test system: UmCdc14; assay: MS specificity constant assay; assay type: biochemical, Ustilago maydis; details: pooled phosphopeptides 375 nM each, 1 to 1,000 nM Cdc14, pH 7.5, 30 °C; LC-MS; mean of 3 ± SD
Text: as §1

[12] = target: T1, MoCdc14; assay type: biochemical, Magnaporthe oryzae; details: phosphopeptide pS; pH 7.5, 30 °C; Biomol Green; mean of 3 ± SD
[13] = test system: CzCdc14; assay: Phosphopeptide steady-state kinetics (Biomol Green); assay type: biochemical, Cercospora zeina; details: phosphopeptide pS, pH 7.5, 30 °C, mean of 3 ± SD
Description: (§2) Activities towards varying concentrations of the synthetic phosphopeptide HT(pSer)PIKSIG (Genscript Corp) were measured in 50 µL assay buffer at 30 °C essentially as described above for pNPP, except substrate consumption was limited to 10% due to limited assay sensitivity and the reaction was stopped with 100 µL Biomol Green (Enzo Life Sciences).

[14] = target: T3, AnCdc14; assay: as above; assay type: biochemical; details: phosphopeptide pS, pH 7.5, 30 °C, mean of 3 ± SD
[15] = target: T4, RsCdc14; assay: as above; assay type: biochemical; details: phosphopeptide pS, pH 7.5, 30 °C, mean of 3 ± SD
Description: as §2

[16] = target: T5, BcCdc14 (Botrytis cinerea, UniProt A0A384J4N9); assay: as above; assay type: biochemical; details: phosphopeptide pS, pH 7.5, 30 °C, mean of 3 ± SD
T5 sequence (A0A384J4N9 1-492): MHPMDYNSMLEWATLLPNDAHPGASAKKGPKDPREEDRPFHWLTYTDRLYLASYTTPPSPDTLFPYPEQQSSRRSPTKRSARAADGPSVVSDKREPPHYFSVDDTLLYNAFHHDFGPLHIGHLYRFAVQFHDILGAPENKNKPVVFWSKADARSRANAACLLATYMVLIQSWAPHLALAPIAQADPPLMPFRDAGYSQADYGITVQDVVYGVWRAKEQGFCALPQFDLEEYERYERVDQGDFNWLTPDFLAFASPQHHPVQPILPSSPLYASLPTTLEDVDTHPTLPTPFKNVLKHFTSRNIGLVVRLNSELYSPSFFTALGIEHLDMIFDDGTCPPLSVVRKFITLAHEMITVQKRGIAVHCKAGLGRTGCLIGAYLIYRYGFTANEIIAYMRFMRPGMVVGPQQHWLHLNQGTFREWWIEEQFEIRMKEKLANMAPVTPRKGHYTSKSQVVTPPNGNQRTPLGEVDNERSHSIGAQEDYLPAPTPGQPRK
Description: as §2

[17] = target: T6, CgCdc14 (Colletotrichum gloeosporioides, UniProt A0A8H4CJA2); assay: as above; assay type: biochemical; details: phosphopeptide pS, pH 7.5, 30 °C, mean of 3 ± SD
Description: as §2

[18] = target: T2, ScCdc14; assay: as above; assay type: biochemical; details: phosphopeptide pS, pH 7.5, 30 °C, mean of 3 ± SD
Description: as §2

[19] = target: T5, BcCdc14; assay: MS specificity constant assay; assay type: biochemical; details: pooled phosphopeptides 375 nM each, 1 to 1,000 nM Cdc14, pH 7.5, 30 °C; LC-MS; mean of 3 ± SD
Text: (§3) Our primary interest was the conservation of substrate specificity. To define the specificities of the eight fungal pathogen Cdc14 homologs and compare them to the well-characterized ScCdc14, we developed a new assay that uses mass spectrometry (MS) to measure the specificity constant, kcat/KM, for a collection of synthetic phosphopeptide substrates (Fig. 3a). This assay, based on a similar assay for measuring protease specificity, is more sensitive and has a much broader linear dynamic range (Fig. 3b) than the conventional malachite green colorimetric assay used to generate the phosphopeptide data in Table 1. These advantages made it convenient for measuring Cdc14 activity towards substrates whose specificity constants can vary by several orders of magnitude. The assay also increases throughput by allowing simultaneous measurement of kcat/KM for many different substrates. The peptides were based on the Yen1 Ser583 sequence with variations designed to test the importance of the four known ScCdc14 substrate recognition features (phosphoamino acid identity, + 1 Pro, + 3 Lys/Arg, Lys/Arg near + 3). Measurements were made by integrating MS chromatogram peak areas for the phosphorylated and dephosphorylated peptide species after Cdc14 treatment and using those values to calculate the fraction of substrate consumed (Fig. 3c; see “Methods” for details). […] Results from this assay were in reasonably good agreement with conventional steady-state kinetic measurements of kcat and KM using a malachite green spectroscopic assay (compare substrate pS in Tables 1 and 2), although the MS assay consistently yielded kcat/KM ~ three to fivefold higher, likely due to sensitivity limitations of the malachite green assay with high affinity substrates.
(§4) kcat/KM measurements can be made on pooled substrate mixtures for characterizing enzymatic specificity, provided substrate concentrations are far below KM[38]. Mass spectrometry is a useful tool for monitoring reaction progress in such mixtures, as long as each substrate and product has a unique mass. […]

[20] = target: T6, CgCdc14; assay: MS specificity constant assay; assay type: biochemical; details: pooled phosphopeptides 375 nM each, 1 to 1,000 nM Cdc14, pH 7.5, 30 °C; LC-MS; mean of 3 ± SD
Text: as §3, §4

[21] = target: T2, ScCdc14; assay: MS specificity constant assay; assay type: biochemical; details: pooled phosphopeptides 375 nM each, 1 to 1,000 nM Cdc14, pH 7.5, 30 °C; LC-MS; mean of 3 ± SD
Text: as §3, §4

[22] = test system: CzCdc14; assay: MS specificity constant assay; assay type: biochemical, Cercospora zeina; details: pooled phosphopeptides 375 nM each, 1 to 1,000 nM Cdc14, pH 7.5, 30 °C; LC-MS; mean of 3 ± SD
Text: as §1

T4 sequence (L8WYM4 2-162 limits assumed): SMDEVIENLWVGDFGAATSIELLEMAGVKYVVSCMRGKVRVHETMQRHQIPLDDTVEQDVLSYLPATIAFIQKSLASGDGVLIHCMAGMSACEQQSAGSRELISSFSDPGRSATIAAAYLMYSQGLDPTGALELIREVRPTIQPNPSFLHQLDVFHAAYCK
T1 sequence (G4MRC9 1-474 limits assumed): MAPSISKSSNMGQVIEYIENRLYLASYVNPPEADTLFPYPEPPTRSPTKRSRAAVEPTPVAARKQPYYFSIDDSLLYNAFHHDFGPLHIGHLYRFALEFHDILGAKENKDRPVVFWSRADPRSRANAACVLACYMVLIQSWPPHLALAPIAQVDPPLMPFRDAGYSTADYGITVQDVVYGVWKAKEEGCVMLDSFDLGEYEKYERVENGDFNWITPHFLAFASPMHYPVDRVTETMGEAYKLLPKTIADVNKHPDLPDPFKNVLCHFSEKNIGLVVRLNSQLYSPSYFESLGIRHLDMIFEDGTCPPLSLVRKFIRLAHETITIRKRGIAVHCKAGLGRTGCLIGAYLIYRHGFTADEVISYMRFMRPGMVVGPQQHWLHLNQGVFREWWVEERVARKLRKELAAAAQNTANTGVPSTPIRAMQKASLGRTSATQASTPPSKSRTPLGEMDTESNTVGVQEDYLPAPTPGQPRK
T6 sequence (A0A8H4CJA2 entry or part of it): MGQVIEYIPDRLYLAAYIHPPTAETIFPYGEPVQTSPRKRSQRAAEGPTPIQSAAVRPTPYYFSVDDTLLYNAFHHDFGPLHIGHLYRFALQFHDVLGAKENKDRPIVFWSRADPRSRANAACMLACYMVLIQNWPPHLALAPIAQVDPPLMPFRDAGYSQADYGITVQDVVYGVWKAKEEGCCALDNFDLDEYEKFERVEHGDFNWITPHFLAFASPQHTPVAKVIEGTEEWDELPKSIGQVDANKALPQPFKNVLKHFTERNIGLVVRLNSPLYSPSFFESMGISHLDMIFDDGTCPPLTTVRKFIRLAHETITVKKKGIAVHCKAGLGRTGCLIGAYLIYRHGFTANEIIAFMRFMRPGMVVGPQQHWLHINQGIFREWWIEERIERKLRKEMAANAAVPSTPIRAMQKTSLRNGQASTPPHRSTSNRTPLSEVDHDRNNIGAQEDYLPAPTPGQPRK
T3 sequence (A2QDS6 1-476 limits assumed): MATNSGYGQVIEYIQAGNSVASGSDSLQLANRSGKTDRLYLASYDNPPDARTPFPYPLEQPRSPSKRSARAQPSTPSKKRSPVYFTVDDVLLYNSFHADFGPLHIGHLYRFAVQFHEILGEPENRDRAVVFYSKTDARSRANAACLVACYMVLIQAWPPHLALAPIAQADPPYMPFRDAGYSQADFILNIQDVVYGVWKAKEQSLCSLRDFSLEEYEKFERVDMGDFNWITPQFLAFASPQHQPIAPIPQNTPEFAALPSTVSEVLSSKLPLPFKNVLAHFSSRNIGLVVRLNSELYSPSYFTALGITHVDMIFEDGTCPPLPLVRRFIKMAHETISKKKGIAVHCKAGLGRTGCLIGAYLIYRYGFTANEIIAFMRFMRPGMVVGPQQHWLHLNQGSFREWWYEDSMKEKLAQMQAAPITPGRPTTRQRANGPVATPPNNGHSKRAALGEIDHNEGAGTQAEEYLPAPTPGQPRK

## Cc1cc(=O)oc2c(F)c(OP(=O)(O)O)c(F)cc12 [DiFMUP]
[1]
  Km: 66 ± 11 µM
  kcat: 31 ± 2 s⁻¹
  kcat/KM: 477,000 ± 10,600 M^−1 s^−1
[2]
  kcat: 3 ± 0.5 s⁻¹
  kcat/KM: 68,000 ± 6,100 M^−1 s^−1

## CC(C)[C@H](NC(=O)[C@@H](N)CCC(=O)O)C(=O)N[C@@H](CC(F)(F)P(=O)(O)O)C(=O)N1CCC[C@H]1C(=O)N[C@H](C(=O)N[C@@H](CCCCN)C(=O)N[C@@H](CCCNC(=N)N)C(N)=O)[C@@H](C)O [pCF2Ser peptide, Glu-Val-pCF2Ser-Pro-Thr-Lys-Arg-amide] (H-EV[X1]PTKR-NH2)
[3]
  Ki: 3.4 ± 1.2 µM
[4]
  Ki: 3.2 ± 1 µM

## O=[N+]([O-])c1ccc(OP(=O)(O)O)cc1 [pNPP, para-nitrophenyl phosphate]
[5]
  kcat: 1.02 ± 0.03 s⁻¹
  kcat/KM: 40 ± 2 M⁻¹ s⁻¹
[6]
  Km: 25000 ± 2000 µM
  kcat: 2.8 ± 0.1 s⁻¹
  kcat/KM: 115 ± 6 M⁻¹ s⁻¹

## HT[pS]PIKSIG
[7]
  specificity constant kcat/KM: 25,200 ± 2,200 M^−1 s^−1
[8]
  specificity constant kcat/KM: 17,300 ± 1,500 M^−1 s^−1
[9]
  kcat/KM of pSer-containing peptide higher than pThr-containing peptide: > 1,000 fold
  kcat/KM of pSer-containing peptide higher than pTyr-containing peptide: > 100 fold
[10]
  specificity constant kcat/KM: 17,000 ± 2,500 M^−1 s^−1
[11]
  specificity constant kcat/KM: 12,900 ± 3,300 M^−1 s^−1
[12]
  Km: 63 ± 19 µM
  kcat: 0.4 ± 0.02 s⁻¹
  kcat/KM: 6,200 ± 1,700 M^−1 s^−1
[13]
  Km: 62 ± 14 µM
  kcat: 2.1 ± 0.1 s⁻¹
  kcat/KM: 34,000 ± 8,000 M^−1 s^−1
[14]
  Km: 194 ± 44 µM
  kcat: 1.0 ± 0.1 s⁻¹
  kcat/KM: 5,100 ± 800 M^−1 s^−1
[15]
  Km: 178 ± 52 µM
  kcat: 0.52 ± 0.07 s⁻¹
  kcat/KM: 3,000 ± 600 M^−1 s^−1
[16]
  Km: 297 ± 38 µM
  kcat/KM: 3,400 ± 300 M^−1 s^−1
[17]
  Km: 351 ± 21 µM
  kcat: 2.2 ± 0.1 s⁻¹
  kcat/KM: 6,200 ± 200 M^−1 s^−1
[18]; 640 nm
  kcat: 1.4 ± 0.1 s⁻¹
[18]
  Km: 173 ± 21 µM
  kcat/KM: 7,800 ± 300 M^−1 s^−1
[19]
  specificity constant kcat/KM: 15,700 ± 1,200 M^−1 s^−1
[20]
  specificity constant kcat/KM: 19,400 ± 1,800 M^−1 s^−1
[21]
  specificity constant kcat/KM: 21,100 ± 1,400 M^−1 s^−1
[22]
  specificity constant kcat/KM: 110,800 ± 10,600 M^−1 s^−1
